Blank lines part the entries; values can stand above or below the compound they belong to.
Key:
KLF15 reporter = KLF15 reporter activity in LPS-treated human podocytes (podocyte stress model); format: cell-based
Experimental: (§1) FIG. 10A-D show representative data illustrating the dose-response curve and EC50 (FIG. 10A), KLF15 reporter activity (FIG. 10B), and Renilla activity (cell viability) (FIG. 10C) in LPS-treated HP, and the therapeutic efficacy in abrogating albuminuria (biomarker of kidney disease) in LPS-treated mice (FIG. 10D).
(§2) After the synthesis of these novel analogues, a primary screening assay was conducted.

human podocytes [1] = assay: Cell viability (renilla activity, MTT assay) in ADR-treated cultured human podocytes; format: cell-based; details: vs K-9, K-15, DEX, DMSO
human podocytes [2] = assay: KLF15 and synaptopodin expression and actin stress fibers in LPS-treated human podocytes; format: cell-based; details: LPS conditions, vs DMSO-treated podocytes
human podocytes [3] = assay: Podocyte survival (Renilla, cell viability) after LPS treatment; format: cell-based; details: LPS-treated human podocytes
Experimental: as §1, §2

[4] = system: Db/db mice on the FVB/N background; assay: db/db murine model of progressive diabetic kidney disease; format: in vivo; details: subcutaneous minipump, 0.85 μg/day for 14 days
From the text: Db/db mice on the FVB/N background were utilized as a murine model of progressive diabetic kidney disease (DKD), where there is significant podocyte injury and glomerulosclerosis.

KLF15 promoter [5] = assay: KLF15 reporter human podocyte assay (HTS, dose-response, primary screening); format: cell-based; details: for EC50: dose-response curve, human podocytes, luciferase/renilla
Experimental: A stable reporter assay directed at KLF15 promoter region (4.3 kb region) was generated in human podocytes, a fragment of human KLF15 promoter upstream of the start codon, by amplifying and subcloning it into the firefly luciferase reporter plasmid (co-transfection with renilla to serve as internal controls). KLF15 promoter activity is measured as a ratio of luciferase to renilla activity. Using this reporter cell line, a cell-based HTS assay was developed using recently reported cell-seeding methodology specific to cultured podocytes (16).

KLF15 = KLF15 activity in ADR-treated cultured human podocytes; format: cell-based; details: nonpermissive conditions 37° C., vs DMSO
KLF15 promoter [6] = assay: KLF15 promoter activity in human podocytes, KLF15 agonist combined with dexamethasone; format: cell-based; details: K-7 combined with DEX, dose-response curves
[7] = system: KLF15 promoter mutated at the GR binding site; assay: GR-mutant KLF15 reporter assay; format: cell-based, human
LPS-treated mice = assay: LPS-induced albuminuria murine model; format: in vivo; details: vs DMSO
Experimental: Referring to FIG. 10D, C57BL/6 mice were treated with lipopolysaccharide (LPS) at dose of 10 μg/g in two divided doses 24 hours apart intraperitoneally to induce podocyte injury and albuminuria.

Structure (SMILES): CSc1ccc(NC(=O)Nc2cc(C)ccn2)cc1 [Compound K-7]
KLF15 reporter activity after LPS treatment (KLF15 reporter): improved KLF15 reporter activity
cell viability (renilla activity and MTT assay) (human podocytes [1]): significantly improved
KLF15 expression (human podocytes [2]): restored
actin stress fiber formation (human podocytes [2]): restored
synaptopodin expression (human podocytes [2]): restored
podocyte survival after LPS treatment (human podocytes [3]): improved
podocyte effacement ([4]; PAS staining and TEM): attenuated podocyte effacement
glomerular basement membrane (GBM) thickness ([4]; quantified with ImageJ): reduced
glomerular volume ([4]; quantified with ImageJ): reduced glomerular volume
maximal KLF15 reporter activity (KLF15 promoter [5]; dose escalation, at similar concentrations to DEX): higher maximal KLF15 reporter activity
EC50 (KLF15 promoter [5]): ~11.9 nM
KLF15 activity (KLF15): restored KLF15 activity
DEX dose required to induce KLF15 reporter activity (KLF15 promoter [6]): reduced the DEX dose required to induce KLF15 reporter activity
genes involved in IL-17R and NF-κB signaling, chemokine/inflammatory signaling and fibrosis pathways (RNA-seq enrichment) (IL-17R signaling; K-7 vs DMSO in LPS-treated podocytes): significant decrease
transcripts downstream of IL-17R signaling (CSF2, CSF3, CXCL2, CXCL3, CCL2, IL1β) (IL-17R signaling; cultured human podocytes, LPS treatment): suppressed
KLF15 reporter activity with KLF15 promoter mutated at the GR binding site [7]: induce KLF15 reporter activity independent of GR signaling
albuminuria (LPS-treated mice; 5 mg/kg every 12 hours, LPS-proteinuric mice): significant improvement in albuminuria
albuminuria (LPS-treated mice; C57BL/6 mice, LPS 10 μg/g, subcutaneous minipump 3.5 μg/day for 48 hours): significantly reduced albuminuria

EC50 (KLF15 promoter [5]): ~76.2 nM
Structure (SMILES): Nc1ccccc1-n1nc2ccc3ccccc3c2n1 [Compound K-9]
KLF15 activity (KLF15): restored KLF15 activity
KLF15 reporter activity with KLF15 promoter mutated at the GR binding site [7]: induce KLF15 reporter activity independent of GR signaling

EC50 (KLF15 promoter [5]): ~10.9 nM
Structure (SMILES): O=C(Nc1ccc2ccccc2c1)c1ccc(Cl)cc1Cl [Compound K-15]
KLF15 activity (KLF15): restored KLF15 activity
KLF15 reporter activity with KLF15 promoter mutated at the GR binding site [7]: induce KLF15 reporter activity independent of GR signaling
